Measurements taken from ChEMBL document CHEMBL6103629 (J Med Chem, 2025).

How the values were obtained:
[1] = Induction of CYP3A4 mRNA expression in human primary hepatocyte isolated from RAS donor at 0.1 to 10 uM incubated for 72 hrs by real-time PCR analysis; format: ADME, cell-based; details: hepatocytes, dose 0.1-10 µM
LoVo = assay: Antitumor activity against human LoVo cells xenografted in female Balb/c nude mouse assessed as tumor growth inhibition at 20 mg/kg QD, po measured every 3 days for 25 days relative to control; format: functional; details: 600 h, time 25 day, read-out: TGI
NCI-H1703 [2] = assay: Antitumor activity against human NCI-H1703 cells xenografted in female Balb/c nude mouse assessed as tumor growth inhibition at 40 mg/kg QD, po measured every 3 days for 28 days by vernier caliper based analysis relative to control; format: functional; details: NCI-H1703, 672 h, time 28 day, read-out: TGI
Cytochrome P450 2C9 = Cytochrome P450 2C9 (Homo sapiens, UniProt P11712); assay: Inhibition of CYP2C9 in human liver microsomes in the presence of NADPH incubated for 60 mins by LC-MS/MS analysis; format: ADME, Microsome
Chain of Cytochrome P450 2C9 (P11712 whole entry): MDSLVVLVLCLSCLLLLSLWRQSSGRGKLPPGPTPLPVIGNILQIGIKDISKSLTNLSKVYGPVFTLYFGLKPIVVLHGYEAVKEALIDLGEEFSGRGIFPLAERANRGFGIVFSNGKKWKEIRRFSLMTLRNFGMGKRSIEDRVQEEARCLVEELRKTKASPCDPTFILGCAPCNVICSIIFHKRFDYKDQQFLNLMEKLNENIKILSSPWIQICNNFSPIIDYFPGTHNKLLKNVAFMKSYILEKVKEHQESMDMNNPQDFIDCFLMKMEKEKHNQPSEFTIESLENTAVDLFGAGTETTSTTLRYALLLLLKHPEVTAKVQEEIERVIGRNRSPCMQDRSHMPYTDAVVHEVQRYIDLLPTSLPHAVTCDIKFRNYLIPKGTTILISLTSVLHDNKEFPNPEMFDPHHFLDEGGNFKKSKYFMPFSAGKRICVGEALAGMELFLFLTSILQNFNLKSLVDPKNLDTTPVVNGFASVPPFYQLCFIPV

[3] = Permeability across basolateral to apical side in human MDCK-MDR1 cells at 0.1 to 10 uM incubated for 120 mins by LC-MS/MS analysis; format: ADME, cell-based, Canis lupus familiaris; details: dog, mdck-mdr1, 2 h, dose 0.1-10 µM
[4] = Plasma protein binding in CD-1 mouse at 1 uM incubated for 5 hrs in HTD dialysis in the presence of verapamil by LC-MS/MS analysis relative to control; format: ADME, cell-free; details: read-out: PPB (converted)
CYP2B6 = CYP2B6 (Homo sapiens, UniProt P20813); assay: Inhibition of recombinant human CYP2B6 assessed as residual activity at 1 uM in the presence of NADPH incubated for 60 mins by LC-MS/MS analysis relative to control; format: ADME; details: read-out: Activity
Chain of CYP2B6 (P20813 whole entry): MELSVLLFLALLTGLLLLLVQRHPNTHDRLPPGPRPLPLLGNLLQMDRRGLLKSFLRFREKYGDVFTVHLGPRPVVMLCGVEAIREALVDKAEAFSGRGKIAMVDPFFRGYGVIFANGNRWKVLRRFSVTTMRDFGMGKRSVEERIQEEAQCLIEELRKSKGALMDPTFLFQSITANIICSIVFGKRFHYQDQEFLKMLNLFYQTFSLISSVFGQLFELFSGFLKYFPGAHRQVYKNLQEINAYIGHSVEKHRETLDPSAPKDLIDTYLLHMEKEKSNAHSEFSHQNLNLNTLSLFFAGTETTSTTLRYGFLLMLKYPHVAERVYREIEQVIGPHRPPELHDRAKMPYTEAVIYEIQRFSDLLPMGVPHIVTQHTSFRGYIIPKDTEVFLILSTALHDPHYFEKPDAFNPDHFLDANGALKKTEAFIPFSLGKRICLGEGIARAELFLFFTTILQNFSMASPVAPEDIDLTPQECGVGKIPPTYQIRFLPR

[5] = Induction of CYP2B6 mRNA expression in human primary hepatocyte isolated from YND donor at 0.1 to 10 uM incubated for 72 hrs by real-time PCR analysis; format: ADME, cell-based; details: hepatocytes, dose 0.1-10 µM
NCI-H1703 [6] = assay: Antitumor activity against human NCI-H1703 cells xenografted in female Balb/c nude mouse assessed as tumor growth inhibition at 40 mg/kg QD, po administered as 3 days on and 4 days off schedule for 4 weeks relative to control; format: functional; details: NCI-H1703, 672 h, time 28 day, read-out: TGI
[7] = Stability in Sprague-Dawley rat plasma assessed as half life by LC-MS/MS analysis; format: ADME, cell-free
[8] = Drug metabolism in human plasma by LC-MS/MS analysis; format: ADME, cell-free
[9] = Toxicity in female Balb/c nude mouse xenografted with human NCI-H1703 cells assessed as body weight at 40 mg/kg QD, po measured every 3 days for 25 days at 10 to 60 mg/kg QD, po measured every 3 days for 28 days; format: organism-based; details: in vivo, 672 h, time 28 day
[10] = Drug excretion in Sprague-Dawley rat feces at 5 mg/kg, IG administrated for 48 hrs by LC-MS/MS analysis; format: ADME, organism-based; details: in vivo, po
[11] = Permeability across basolateral to apical side in human Caco-2 cells at 0.1 to 10 uM incubated for 120 mins by LC-MS/MS analysis; format: ADME, cell-based; details: caco-2, 2 h, dose 0.1-10 µM
[12] = Plasma protein binding in human at 1 uM incubated for 5 hrs in HTD dialysis in the presence of verapamil by LC-MS/MS analysis relative to control; format: ADME, cell-free; details: read-out: PPB (converted)

In the case of Cc1nn(-c2cccnc2)c(C)c1-c1cc(N2CC3CCC(C2)O3)nc2c(-c3ccn[nH]3)cnn12.O=C(O)/C=C/C(=O)O, the Activity [1] is reported as “Active”, the inhibition in vivo at 20 mg/kg (LoVo) is reported as 26.9% and the inhibition in vivo at 40 mg/kg (NCI-H1703 [2]) is reported as 73.3%. For the same compound, the IC50 (Cytochrome P450 2C9) was 32.8 µM, the permeability [3] was “Permeable” and the fraction unbound at 5 h, 1 µM [4] was 0.361. The activity at 1 h, 1 µM (CYP2B6) was 94.1%, the Activity [5] was “Not_active” and the inhibition in vivo at 40 mg/kg (NCI-H1703 [6]) was 36.2%. The half-life [7] was over 120 min, the Drug metabolism [8] was “metabolite_notdetected” and the Activity [9] was “Toxic”. The Drug excretion [10] was “Active”, the permeability [11] was “Permeable” and the fraction unbound at 5 h, 1 µM [12] was 0.075.
